The source of these data is patent US20240091295A1, “PIPER NIGRUM COMPOSITION AND METHOD OF TREATING PAIN” (priority 2022, published 2024).

The subject of the test is mice. In words: Acetic acid-induced writhing test. In kind it is in vivo. Conditions: 30 mg/kg i.p., vs control group. How it is done: Male Balb/c mice procured from the authorized animal supplier Biogen Laboratory Animal Facility, Bangalore, India were used for the animal experiments. The animals were housed in the animal facility of R&D Center, Vidya Herbs Pvt Ltd under controlled environmental conditions (temperature: 23±2° C., relative humidity: 35-50%, 12 h light/dark cycle). The animals were given commercial pellet diet and water ad libitum. All the animals were allowed to acclimatize to the environmental conditions before the start of experiments. The experimental protocols were approved by the Institutional Animal Ethics Committee (IAEC) of Vidya Herbs Pvt Ltd., Bangalore, India (VHPL/PCL/IAEC/01/2021).
Twenty-four male mice were randomized to four groups (n=6 in each group): Control group were given normal saline solution while positive control group received reference drug Diclofenac sodium (30 mg/kg). Two test doses of the inventive composition (25 and 50 mg/kg body weight) were used in the test. All the treatments were intraperitoneally injected. 30 min after the respective treatments, the animals were given 10 mL/kg body weight of 1% acetic acid intraperitoneally. The number of writhes were recorded after 10 min of acetic acid administration.
All the experimental data were analyzed by one way ANOVA followed by Tukey's multiple comparison test using GraphPad Prism 9.0 (GraphPad Software, Inc.). […]
For orientation: An intraperitoneal irritant provokes the stretching counted in writhing tests.

The molecule `O=C(O)Cc1ccccc1Nc1c(Cl)cccc1Cl` [diclofenac sodium, Diclofenac sodium] registered a writhing inhibition of 86.55%.
